Assay results from patent US11319298B2 (Merck Sharp & Dohme Corp., priority 2016, dated 2022).

Biological target: T1, human M4 muscarinic acetylcholine receptor (Homo sapiens, UniProt P08173)
T1 construct: expressed in transfected cells; host or cells: CHO-K1
T1 sequence (P08173 1-479): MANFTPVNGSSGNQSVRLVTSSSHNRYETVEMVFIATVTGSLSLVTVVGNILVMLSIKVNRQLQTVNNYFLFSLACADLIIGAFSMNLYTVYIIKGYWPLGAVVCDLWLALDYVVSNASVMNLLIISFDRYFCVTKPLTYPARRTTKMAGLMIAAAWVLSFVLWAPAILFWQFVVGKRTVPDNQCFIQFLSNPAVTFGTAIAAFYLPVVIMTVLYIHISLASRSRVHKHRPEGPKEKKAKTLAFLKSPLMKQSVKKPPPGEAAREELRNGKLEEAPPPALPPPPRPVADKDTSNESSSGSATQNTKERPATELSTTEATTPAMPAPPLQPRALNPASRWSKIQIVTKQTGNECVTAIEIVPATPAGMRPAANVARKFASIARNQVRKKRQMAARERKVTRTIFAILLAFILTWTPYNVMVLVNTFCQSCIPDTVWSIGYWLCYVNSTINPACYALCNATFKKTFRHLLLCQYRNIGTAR
Test: human FLIPR-based M4 PAM assay, CHO-K1 cells stably transfected with human M4 receptor and chimeric G-protein Gαqi5
Format: cell-based
Settings: inflection point (IP) of dose response curve; acetylcholine added at 20% of maximum response; CHO-K1 human M4/Gαqi5, FLIPR Tetra
Method in brief: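 CHO-K1 cells were loaded with calcium dye at 37 °C for ~1 h. Fluorescence (ex 470–495/em 515–575 nm) was read for 4 min after test compound at increasing concentrations, then 3.5 min after acetylcholine at an EC20; sometimes a third addition at EC70 followed. The value is the inflection point of a 4-parameter logistic fit.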

Compound | EC50 [nM]
COc1ccc(OC2CCN(c3nnc(C(=O)NCc4cccc(C#N)c4)cc3C)CC2)cn1 [Example 153, N-(3-cyanobenzyl)-6-{4-[(6-methoxypyridin-3-yl)oxy]piperidin-1-yl}-5-methylpyridazine-3-carboxamide] | 261
COc1ccc(OC2CCN(c3nnc(C(=O)NCc4ccncc4Cl)cc3C)CC2)cn1 [Example 154, N-[(3-chloropyridin-4-yl)methyl]-6-{4-[(6-methoxypyridin-3-yl)oxy]piperidin-1-yl}-5-methylpyridazine-3-carboxamide] | 262
COc1ccc(OC2CCN(c3nnc(C(=O)NC4(C)CCCC4)cc3C)CC2)cn1 [Example 185, 6-{4-[(6-methoxypyridin-3-yl)oxy]piperidin-1-yl}-5-methyl-N-(1-methylcyclopentyl)pyridazine-3-carboxamide] | 1040
Cc1cc(C(=O)NCc2ccccc2Cl)nnc1N1CCC(Oc2cccc(C#N)c2)CC1 [Example 199, N-(2-chlorobenzyl)-6-[4-(3-cyanophenoxy)piperidin-1-yl]-5-methylpyridazine-3-carboxamide] | 118
Cc1cncc(-c2ncnc(N3CCC(Oc4cccc(C#N)c4)CC3)c2C)c1 [Example 247, 3-((1-(5-methyl-6-(5-methylpyridin-3-yl)pyrimidin-4-yl)piperidin-4-yl)oxy)benzonitrile] | 1130
COc1ccc(OC2CCN(c3nnc(C(=O)NCc4ccncc4)cc3C)CC2)cn1 [Example 109, 6-{4-[(6-methoxypyridin-3-yl)oxy]piperidin-1-yl}-5-methyl-N-(pyridin-4-ylmethyl)pyridazine-3-carboxamide] | 34
Cc1nc(Cl)c(C)c(N2CCC(Oc3cccc(C#N)c3)CC2)n1 [Example 55, 3-((1-(6-chloro-2,5-dimethylpyrimidin-4-yl)piperidin-4-yl)oxy)benzonitrile] | 59
Cc1c(Cl)ncnc1N1CCC(Oc2ccc3nn(C)cc3c2)CC1 [Example 66, 5-((1-(6-chloro-5-methylpyrimidin-4-yl)piperidin-4-yl)oxy)-2-methyl-2H-indazole] | 106
C=Cc1ncnc(N2CCC(Oc3ccc(OC)nc3)CC2)c1C [Example 243, 4-(4-((6-methoxypyridin-3-yl)oxy)piperidin-1-yl)-5-methyl-6-vinylpyrimidine] | 342
Cc1ncc(C)c(N2CCC(Oc3ccc4cn[nH]c4c3)CC2)n1 [Example 80, 6-((1-(2,5-dimethylpyrimidin-4-yl)piperidin-4-yl)oxy)-1H-indazole] | 257
Cc1ncc(C)c(N2CCC(Oc3cccnc3)CC2)n1 [Example 19, 2,5-dimethyl-4-(4-(pyridin-3-yloxy)piperidin-1-yl)pyrimidine] | 2920
COc1ccc(OC2CCN(c3nnc(-c4nc(C)no4)cc3C)CC2)cn1 [Example 28, 5-(6-(4-((6-methoxypyridin-3-yl)oxy)piperidin-1-yl)-5-methylpyridazin-3-yl)-3-methyl-1,2,4-oxadiazole] | 119
COCc1nc(Cl)c(C)c(N2CCC(Oc3ccc(OC)cc3)CC2)n1 [Example 61, 4-chloro-2-(methoxymethyl)-6-(4-(4-methoxyphenoxy)piperidin-1-yl)-5-methylpyrimidine] | 84
COc1ccc(OC2CCN(c3nnc(C(=O)NCc4ccn[nH]4)cc3C)CC2)cn1 [Example 119, 6-{4-[(6-methoxypyridin-3-yl)oxy]piperidin-1-yl}-5-methyl-N-(1H-pyrazol-5-ylmethyl)pyridazine-3-carboxamide] | 95
COc1ccc(OC2CCN(c3nc(C(=O)N[C@H]4CCCc5ccccc54)nc(Cl)c3C)CC2)cn1 [Example 224, (S)-4-chloro-6-(4-((6-methoxypyridin-3-yl)oxy)piperidin-1-yl)-5-methyl-N-(1,2,3,4-tetrahydronaphthalen-1-yl)pyrimidine-2-carboxamide] | 4850
COc1ccc(OC2CCN(c3ncnc(-c4ccoc4)c3C)CC2)cn1 [Example 252, 4-(furan-3-yl)-6-(4-((6-methoxypyridin-3-yl)oxy)piperidin-1-yl)-5-methylpyrimidine] | 1710
Cc1nc(Cl)c(C)c(N2CCC(Oc3ccc4nn(C)cc4c3)CC2)n1 [Example 67, 5-((1-(6-chloro-2,5-dimethypyrimidin-4-yl)piperidin-4-yl)oxy)-2-methyl-2H-indazole] | 108
COc1ccc(O[C@@H]2CCN(c3nc(C)ncc3C)C[C@@H]2F)cn1 [Example 84, 4-((3S,4R)-3-fluoro-4-((6-methoxypyridin-3-yl)oxy)piperidin-1-yl)-2,5-dimethylpyrimidine] | 574
COc1ccc(OC2CCN(c3nnc(C(=O)NCc4ccc(OC)c(C(F)(F)F)c4)cc3C)CC2)cn1 [Example 186, 6-{4-[(6-methoxypyridin-3-yl)oxy]piperidin-1-yl}-N-[4-methoxy-3-(trifluoromethyl)benzyl]-5-methylpyridazine-3-carboxamide] | 1250
COc1ccc(OC2CCN(c3nnc(C(=O)NCc4nncs4)cc3C)CC2)cn1 [Example 113, 6-{4-[(6-methoxypyridn-3-yl)oxy]piperidin-1-yl}-5-methyl-N-(1,3,4-thiadiazol-2-ylmethyl)pyridazine-3-carboxamide] | 44
COc1ccc(OC2CCN(c3nnc(C(=O)N[C@@H]4CCc5ccccc5C4)cc3C)CC2)cn1 [Example 165A, (R)-6-{4-[(6-methoxypyridin-3-yl)oxy]piperidin-1-yl}-5-methyl-N-(1,2,3,4-tetrahydronaphthalen-2-yl)pyridazine-3-carboxamide] | 344
COc1ccc(OC2CCN(c3nc(C)nc(C)c3C)CC2)cn1 [Example 104, 4-(4-((6-methoxypyridin-3-yl)oxy)piperidin-1-yl)-2,5,6,-trimethylpyrimidine] | 91
Cc1cc(C(=O)NC2C3CC2C3)nnc1N1CCC(Oc2ccc3c(c2)OCCO3)CC1 (centres unmarked) [Example 131, N-bicyclo[1.1.1]pent-2-yl-6-[4-(2,3-dihydro-1,4-benzodioxin-6-yloxy)piperidin-1-yl]-5-methylpyridazine-3-carboxamide] | 127
Cc1cc(C(=O)NC2C3CC2C3)nnc1N1CCC(Oc2ccc3c(c2)C(=O)N(C)C3)CC1 (centres unmarked) [Example 157, N-bicyclo[1.1.1]pent-2-yl-5-methyl-6-{4-[(2-methyl-3-oxo-2,3-dihydro-1H-isoindol-5-yl)oxy]piperidin-1-yl}pyridazine-3-carboxamide] | 277
COc1ccc(OC2CCN(c3nc(C(=O)NCc4ccccc4Cl)nc(Cl)c3C)CC2)cn1 [Example 219, 4-chloro-N-(2-chlorobenzyl)-6-(4-((6-methoxypyridin-3-yl)oxy)piperidin-1-yl)-5-methylpyrimidine-2-carboxamide] | 1090
COC(=O)c1cc(C)c(N2CCC(Oc3ccc(OC)nc3)CC2)nc1C#N [Example 45, methyl 2-cyano-6-(4-((6-methoxypyridin-3-yl)oxy)piperidin-1-yl)-5-methylnicotinate] | 493
